{"source": "patent US20170151219A1", "about": "“ANTIPERSPIRANT AGENT” (OSAKA UNIVERSITY, priority 2014, published 2017)", "key": {"human": {"system": "human", "assay": "Observation of skin symptom after oral administration of mTOR inhibitor", "format": "in vivo", "conditions": "orally 10 mg per day, FIG. 3", "procedure": "An influence on a skin exerted by a mTOR inhibitor was observed.\nSpecifically, a mTOR inhibitor (everolimus (Afinitor (Registered Trademark)) was orally administered to a human by 10 mg per day, and a symptom appeared on the skin was observed.\nSpecifically, (a) of FIG. 3 is a photograph showing a state of the skin before the mTOR inhibitor is administered, and (b) of FIG. 3 is a photograph showing a state of the skin after the mTOR inhibitor is administered."}, "[1]": {"system": "patient of renal angiomyolipoma in consequence of tuberous sclerosis", "assay": "Amount of sweating measured with local perspiration meter during and after oral mTOR inhibitor", "format": "in vivo, human", "conditions": "FIG. 4", "procedure": "To a patient of renal angiomyolipoma in consequence of tuberous sclerosis, the mTOR inhibitor (everolimus (Afinitor (Registered Trademark))) was orally administered by 10 mg per day for approximately four months, and then the oral administration of the mTOR inhibitor was withdrawn.\nDuring the period, after the oral administration of the mTOR inhibitor was started, an amount of sweating on a normal skin of the patient was measured with time and an amount of sweating on a skin of the patient on which a symptom of vitiligo appeared was measured with time.\nThe amount of sweating was measured with use of a local perspiration meter (quantitative axon reflex sweat amount measuring device) manufactured by Skinos Giken, and a specific measuring method was in conformity to a protocol attached to the device."}, "[2]": {"conditions": "orally 10 mg per day for approximately four months"}}, "data": [{"smiles": "CO[C@H]1C[C@@H]2CC[C@@H](C)[C@@](O)(O2)C(=O)C(=O)N2CCCC[C@H]2C(=O)O[C@H]([C@H](C)C[C@@H]2CC[C@@H](OCCO)[C@H](OC)C2)CC(=O)[C@H](C)/C=C(\\C)[C@@H](O)[C@@H](OC)C(=O)[C@H](C)C[C@H](C)/C=C/C=C/C=C/1C", "note": "[everolimus]", "values": [{"measurement": "symptom appeared on the skin", "setting": "human", "result": "dry skin"}, {"measurement": "amounts of sweating after withdrawal of administration", "setting": "[1]; normal skin and vitiligo skin, after withdrawal of oral administration", "result": "restored"}, {"measurement": "amount of sweating on the normal skin", "setting": "[1]; [2]", "result": "reduced"}, {"measurement": "amount of sweating on the skin showing the symptom of vitiligo", "setting": "[1]; [2]", "result": "reduced"}]}]}
